# How the values were obtained:
# Assay type in all cases: in vivo
# Kochia (Kochia scoparia) [1] = experiment: Test A preemergence; conditions: for Plant response rating, Kochia: 125 g ai/ha; for Kochia plant response rating (0 to 100 scale, 0 is no effect, 100 is complete control): 500 g ai/ha, visual injury approx. 10 d
# Description: (§1) Seeds of plant species selected from barnyardgrass (Echinochloa crus-galli), Kochia (Kochia scoparia), ragweed (common ragweed, Ambrosia elatior), ryegrass, Italian (Italian ryegrass, Lolium multiflorum), crabgrass, large (Digitaria sanguinalis), giant foxtail (Setaria faberii), green foxtail (Setaria viridis), morningglory (Ipomoea spp.), pigweed (Amaranthus retroflexus), velvetleaf (Abutilon theophrasti), wheat (Triticum aestivum), and corn (Zea mays) were planted into a blend of loam soil and sand and treated preemergence with a directed soil spray using test chemicals formulated in anon-phytotoxic solvent mixture which included a surfactant.
# (§2) At the same time, plants selected from these crop and weed species and also blackgrass (Alopecurus myosuroides), and Galium (catchweed bedstraw, Galium aparine) were planted in pots containing the same blend of loam soil and sand and treated with postemergence applications of test chemicals formulated in the same manner. Plants ranged in height from 2 to 10 cm and were in the one- to two-leaf stage for the postemergence treatment. Treated plants and untreated controls were maintained in a greenhouse for approximately 10 d, after which time all treated plants were compared to untreated controls and visually evaluated for injury. Plant response ratings, summarized in Table A, are based on a 0 to 100 scale where 0 is no effect and 100 is complete control. A dash (-) response means no test result.
# [2] = system: barnyardgrass (Echinochloa crus-galli); experiment: Test A preemergence; conditions: for Plant response rating, Barnyardgrass: 125 g ai/ha; for Barnyardgrass plant response rating (0 to 100 scale, 0 is no effect, 100 is complete control): 500 g ai/ha, visual injury approx. 10 d
# Description: as §1, §2
# [3] = system: giant foxtail (Setaria faberii); experiment: Test A preemergence; conditions: for Plant response rating, Foxtail, Giant: 125 g ai/ha; for Foxtail, Giant plant response rating (0 to 100 scale, 0 is no effect, 100 is complete control): 500 g ai/ha, visual injury approx. 10 d
# Description: as §1, §2
# [4] = system: pigweed (Amaranthus retroflexus); experiment: Test A preemergence; conditions: for Plant response rating, Pigweed: 125 g ai/ha; for Pigweed plant response rating (0 to 100 scale, 0 is no effect, 100 is complete control): 500 g ai/ha, visual injury approx. 10 d
# Description: as §1, §2
# [5] = system: ragweed (common ragweed, Ambrosia elatior); experiment: Test A preemergence; conditions: for Plant response rating, Ragweed: 125 g ai/ha; for Ragweed plant response rating (0 to 100 scale, 0 is no effect, 100 is complete control): 500 g ai/ha, visual injury approx. 10 d
# Description: as §1, §2
# [6] = system: ryegrass, Italian (Italian ryegrass, Lolium multiflorum); experiment: Test A preemergence; conditions: for Plant response rating, Ryegrass, Italian: 125 g ai/ha; for Ryegrass, Italian plant response rating (0 to 100 scale, 0 is no effect, 100 is complete control): 500 g ai/ha, visual injury approx. 10 d
# Description: as §1, §2
# [7] = system: Galium (catchweed bedstraw, Galium aparine); experiment: Test A postemergence
# Description: as §1, §2
# Kochia (Kochia scoparia) [8] = experiment: Test A postemergence
# Description: as §1, §2
# [9] = system: barnyardgrass (Echinochloa crus-galli); experiment: Test A postemergence; conditions: for Barnyardgrass plant response rating: visual injury rating on 0 to 100 scale (0 no effect, 100 complete control), approx. 10 d
# Description: as §1, §2
# [10] = system: blackgrass (Alopecurus myosuroides); experiment: Test A postemergence; conditions: for Blackgrass plant response rating: visual injury rating on 0 to 100 scale (0 no effect, 100 complete control), approx. 10 d
# Description: as §1, §2
# corn (Zea mays) = experiment: Test A postemergence
# Description: as §1, §2
# [11] = system: giant foxtail (Setaria faberii); experiment: Test A postemergence
# Description: as §1, §2
# [12] = system: pigweed (Amaranthus retroflexus); experiment: Test A postemergence
# Description: as §1, §2
# [13] = system: ragweed (common ragweed, Ambrosia elatior); experiment: Test A postemergence
# Description: as §1, §2
# [14] = system: ryegrass, Italian (Italian ryegrass, Lolium multiflorum); experiment: Test A postemergence
# Description: as §1, §2
# [15] = system: wheat (Triticum aestivum); experiment: Test A postemergence
# Description: as §1, §2
# [16] = Preemergence, 1000 g ai/ha, 0 is no effect, 100 is complete control
# [17] = 1000 g ai/ha, postemergence, 0 to 100 scale, 0 no effect, 100 complete control
# [18] = Preemergence, visual injury after approximately 10 d, 0 to 100 scale where 0 is no effect and 100 is complete control
# [19] = 125 g ai/ha, postemergence, visual rating after approx. 10 d, 0 to 100 scale (0 no effect, 100 complete control)
# [20] = Postemergence, 500 g ai/ha, 0 to 100 scale where 0 is no effect and 100 is complete control
# [21] = preemergence, 0 to 100 scale (0 no effect, 100 complete control)
# [22] = 125 g ai/ha, postemergence, visual injury rating on 0 to 100 scale (0 no effect, 100 complete control), approx. 10 d
# [23] = 500 g ai/ha, postemergence, 0 to 100 scale, 0 no effect, 100 complete control
smiles,measurement,setting,value
O=C(Nc1cccc(F)c1F)C1C(=O)N(CC=CCl)CC1c1cc(F)cc(F)c1 (stereo not shown) [Compound 512],Kochia plant response rating (0 to 100 scale),Kochia (Kochia scoparia) [1]; [16],0
same,Barnyardgrass plant response rating (0 to 100 scale),[2]; [16],80
same,"Foxtail, Giant plant response rating (0 to 100 scale)",[3]; [16],90
same,Pigweed plant response rating (0 to 100 scale),[4]; [16],0
same,Ragweed plant response rating (0 to 100 scale),[5]; [16],0
same,"Ryegrass, Italian plant response rating (0 to 100 scale)",[6]; [16],0
same,"Plant response rating, Galium",[7]; [17],0
same,"Plant response rating, Kochia",Kochia (Kochia scoparia) [8]; [17],0
same,"Plant response rating, Barnyardgrass",[9]; [17],80
same,"Plant response rating, Blackgrass",[10]; [17],0
same,"Plant response rating, Corn",corn (Zea mays); [17],0
same,"Plant response rating, Foxtail, Giant",[11]; [17],90
same,"Plant response rating, Pigweed",[12]; [17],0
same,"Plant response rating, Ragweed",[13]; [17],0
same,"Plant response rating, Ryegrass, Italian",[14]; [17],0
same,"Plant response rating, Wheat",[15]; [17],0
CN1CC(c2cccc(C(F)(F)F)c2)C(C(=O)Nc2cccc(Cl)c2F)C1=O (stereo not shown) [Compound 574],"Plant response rating, Kochia",Kochia (Kochia scoparia) [1]; [18],40
same,"Kochia plant response rating (0 to 100 scale, 0 is no effect, 100 is complete control)",Kochia (Kochia scoparia) [1]; Preemergence,70
same,"Plant response rating, Barnyardgrass",[2]; [18],90
same,"Barnyardgrass plant response rating (0 to 100 scale, 0 is no effect, 100 is complete control)",[2]; Preemergence,90
same,"Plant response rating, Foxtail, Giant",[3]; [18],90
same,"Foxtail, Giant plant response rating (0 to 100 scale, 0 is no effect, 100 is complete control)",[3]; Preemergence,90
same,"Plant response rating, Pigweed",[4]; [18],20
same,"Pigweed plant response rating (0 to 100 scale, 0 is no effect, 100 is complete control)",[4]; Preemergence,50
same,"Plant response rating, Ragweed",[5]; [18],0
same,"Ragweed plant response rating (0 to 100 scale, 0 is no effect, 100 is complete control)",[5]; Preemergence,0
same,"Plant response rating, Ryegrass, Italian",[6]; [18],40
same,"Ryegrass, Italian plant response rating (0 to 100 scale, 0 is no effect, 100 is complete control)",[6]; Preemergence,80
same,"Plant response rating, Galium",[7]; [19],40
same,"Plant response rating, Galium",[7]; [20],50
same,"Plant response rating, Kochia",Kochia (Kochia scoparia) [8]; [19],30
same,"Plant response rating, Kochia",Kochia (Kochia scoparia) [8]; [20],60
same,"Plant response rating, Barnyardgrass",[9]; [19],90
same,"Plant response rating, Barnyardgrass",[9]; [20],90
same,"Plant response rating, Blackgrass",[10]; [19],60
same,"Plant response rating, Blackgrass",[10]; [20],70
same,"Plant response rating, Corn",corn (Zea mays); [19],60
same,"Plant response rating, Corn",corn (Zea mays); [20],80
same,"Plant response rating, Foxtail, Giant",[11]; [19],80
same,"Plant response rating, Foxtail, Giant",[11]; [20],80
same,"Plant response rating, Pigweed",[12]; [19],20
same,"Plant response rating, Pigweed",[12]; [20],40
same,"Plant response rating, Ragweed",[13]; [19],0
same,"Plant response rating, Ragweed",[13]; [20],0
same,"Plant response rating, Ryegrass, Italian",[14]; [19],50
same,"Plant response rating, Ryegrass, Italian",[14]; [20],70
same,"Plant response rating, Wheat",[15]; [19],40
same,"Plant response rating, Wheat",[15]; [20],70
O=C(Nc1cccc(F)c1F)C1C(=O)N(CC=CBr)CC1c1cccc(C(F)(F)F)c1 (stereo not shown) [Compound 527],"Plant response rating, Kochia",Kochia (Kochia scoparia) [1]; [18],0
same,"Kochia plant response rating (0 to 100 scale, 0 is no effect, 100 is complete control)",Kochia (Kochia scoparia) [1]; Preemergence,0
same,"Plant response rating, Barnyardgrass",[2]; [18],0
same,"Barnyardgrass plant response rating (0 to 100 scale, 0 is no effect, 100 is complete control)",[2]; Preemergence,20
same,"Plant response rating, Foxtail, Giant",[3]; [18],80
same,"Foxtail, Giant plant response rating (0 to 100 scale, 0 is no effect, 100 is complete control)",[3]; Preemergence,80
same,"Plant response rating, Pigweed",[4]; [18],0
same,"Pigweed plant response rating (0 to 100 scale, 0 is no effect, 100 is complete control)",[4]; Preemergence,0
same,"Plant response rating, Ragweed",[5]; [18],0
same,"Ragweed plant response rating (0 to 100 scale, 0 is no effect, 100 is complete control)",[5]; Preemergence,0
same,"Plant response rating, Ryegrass, Italian",[6]; [18],0
same,"Ryegrass, Italian plant response rating (0 to 100 scale, 0 is no effect, 100 is complete control)",[6]; Preemergence,0
same,"Plant response rating, Galium",[7]; [19],0
same,"Plant response rating, Galium",[7]; [20],0
same,"Plant response rating, Kochia",Kochia (Kochia scoparia) [8]; [19],0
same,"Plant response rating, Kochia",Kochia (Kochia scoparia) [8]; [20],0
same,Barnyardgrass plant response rating,"[9]; 125 g ai/ha, postemergence",0
same,"Plant response rating, Barnyardgrass",[9]; [20],20
same,Blackgrass plant response rating,"[10]; 125 g ai/ha, postemergence",0
same,"Plant response rating, Blackgrass",[10]; [20],0
same,"Plant response rating, Corn",corn (Zea mays); [19],0
same,"Plant response rating, Corn",corn (Zea mays); [20],0
same,"Plant response rating, Foxtail, Giant",[11]; [19],0
same,"Plant response rating, Foxtail, Giant",[11]; [20],20
same,"Plant response rating, Pigweed",[12]; [19],0
same,"Plant response rating, Pigweed",[12]; [20],0
same,"Plant response rating, Ragweed",[13]; [19],0
same,"Plant response rating, Ragweed",[13]; [20],0
same,"Plant response rating, Ryegrass, Italian",[14]; [19],0
same,"Plant response rating, Ryegrass, Italian",[14]; [20],0
same,"Plant response rating, Wheat",[15]; [19],0
same,"Plant response rating, Wheat",[15]; [20],0
COC(=O)c1ccccc1NC(=O)C1C(=O)NCC1c1ccc(F)c(F)c1 (stereo not shown) [Compound 417],"Plant response rating, Kochia",Kochia (Kochia scoparia) [1]; [21],0
same,"Kochia plant response rating (0 to 100 scale, 0 is no effect, 100 is complete control)",Kochia (Kochia scoparia) [1]; Preemergence,0
same,"Plant response rating, Barnyardgrass",[2]; [21],0
same,"Barnyardgrass plant response rating (0 to 100 scale, 0 is no effect, 100 is complete control)",[2]; Preemergence,0
same,"Plant response rating, Foxtail, Giant",[3]; [21],0
same,"Foxtail, Giant plant response rating (0 to 100 scale, 0 is no effect, 100 is complete control)",[3]; Preemergence,0
same,"Plant response rating, Pigweed",[4]; [21],0
same,"Pigweed plant response rating (0 to 100 scale, 0 is no effect, 100 is complete control)",[4]; Preemergence,0
same,"Plant response rating, Ragweed",[5]; [21],0
same,"Ragweed plant response rating (0 to 100 scale, 0 is no effect, 100 is complete control)",[5]; Preemergence,0
same,"Plant response rating, Ryegrass, Italian",[6]; [21],0
same,"Ryegrass, Italian plant response rating (0 to 100 scale, 0 is no effect, 100 is complete control)",[6]; Preemergence,0
same,Galium plant response rating,[7]; [22],0
same,"Plant response rating, Galium",[7]; [23],0
same,Kochia plant response rating,Kochia (Kochia scoparia) [8]; [22],0
same,"Plant response rating, Kochia",Kochia (Kochia scoparia) [8]; [23],0
same,Barnyardgrass plant response rating,"[9]; 125 g ai/ha, postemergence",0
same,"Plant response rating, Barnyardgrass",[9]; [23],0
same,Blackgrass plant response rating,"[10]; 125 g ai/ha, postemergence",0
same,"Plant response rating, Blackgrass",[10]; [23],0
same,Corn plant response rating,corn (Zea mays); [22],0
same,"Plant response rating, Corn",corn (Zea mays); [23],0
same,"Foxtail, Giant plant response rating",[11]; [22],0
same,"Plant response rating, Foxtail, Giant",[11]; [23],0
same,Pigweed plant response rating,[12]; [22],0
same,"Plant response rating, Pigweed",[12]; [23],0
same,Ragweed plant response rating,[13]; [22],0
same,"Plant response rating, Ragweed",[13]; [23],0
same,"Ryegrass, Italian plant response rating",[14]; [22],0
same,"Plant response rating, Ryegrass, Italian",[14]; [23],0
same,Wheat plant response rating,[15]; [22],0
same,"Plant response rating, Wheat",[15]; [23],0

# From patent publication US12077503B2, “Substituted cyclic amides and their use as herbicides” (FMC CORPORATION, priority 2015, dated 2024)
